Our source for the hepatocyte CLint, IC50 and microsomal CLint values is ChEMBL document CHEMBL1777748 (Bioorg Med Chem Lett, 2011).

What is called hepatocyte CLint is a measure of how fast metabolising enzymes remove a compound, apart from limits set by blood flow. The low end stands for slow turnover, the high end for rapid turnover. What is called IC50 is the concentration that gives 50% inhibition. A higher IC50 goes with a need for much substance. What is called microsomal CLint is the capacity of the preparation to metabolise the compound, expressed as a volume cleared per time.

Structures are written as SMILES.

A short description of data set [1]: Intrinsic clearance in rat hepatocytes assessed per 1 x 10^6 cells.
Data set [2] addresses T1, Prostaglandin D2 receptor 2 (Homo sapiens, UniProt Q9Y5Y4).
T1 sequence (Q9Y5Y4 whole entry): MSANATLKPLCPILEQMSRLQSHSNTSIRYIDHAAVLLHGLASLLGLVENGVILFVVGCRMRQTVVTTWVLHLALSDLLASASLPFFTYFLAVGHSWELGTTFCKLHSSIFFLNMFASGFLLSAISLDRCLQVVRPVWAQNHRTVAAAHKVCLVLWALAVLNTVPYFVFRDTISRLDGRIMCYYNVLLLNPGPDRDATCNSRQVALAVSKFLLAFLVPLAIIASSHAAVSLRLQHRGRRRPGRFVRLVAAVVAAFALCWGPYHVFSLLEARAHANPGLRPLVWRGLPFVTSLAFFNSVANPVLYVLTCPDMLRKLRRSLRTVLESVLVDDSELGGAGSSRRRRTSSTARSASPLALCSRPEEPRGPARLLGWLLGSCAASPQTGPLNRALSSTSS
The data set is described as follows: Displacement of [3H]-PGD2 from CRTh2 receptor by scintillation proximity assay. (In a radioligand displacement assay an active substance lowers the binding of a labelled ligand.)

Data set [3] can be described thus: Intrinsic clearance in human liver microsomes.

In turn, `CCS(=O)(=O)c1ccc(-c2cc(Cl)ccc2OCC(=O)O)c(F)c1` yielded a hepatocyte CLint in data set [1] of 4 µL/min/1e6 cells. The IC50 in data set [2] turned out to be 7.9 nM. In data set [3] (microsomes), this molecule had a microsomal CLint of less than 3 µL/min/mg.
For the molecule `CN(c1ccc(-c2cc(C(F)(F)F)ccc2OCC(=O)O)c(Cl)c1)S(C)(=O)=O`, the half-maximal inhibitory concentration (IC50) in data set [2] is 0.1 nM. This lies in the sub-nanomolar range.
In data set [2], `O=C(O)COc1ccc(Cl)cc1-c1ccccc1` registered an IC50 of 251 nM.
As to `CCS(=O)(=O)c1ccc(-c2cc(C(F)(F)F)ccc2CCC(=O)O)c(C)c1`, the hepatocyte CLint in data set [1] was found to be 25 µL/min/1e6 cells. In addition, in data set [2], the IC50 stood at 2.5 nM. This molecule also showed a microsomal CLint in data set [3] (liver microsomes) of less than 4 µL/min/mg.
Regarding `O=C(O)COc1ccc(C(F)(F)F)cc1-c1ccc2c(c1)CCS2(=O)=O`, the hepatocyte CLint in data set [1] came to 13 µL/min/1e6 cells. The same molecule displayed an IC50 in data set [2] of 126 nM. For the same molecule, the microsomal CLint in data set [3] (liver microsomes) was 6 µL/min/mg.
`CCS(=O)(=O)c1ccc(-c2cc(Cl)ccc2OCC(=O)O)c(C)c1` returned a 50% inhibitory concentration (IC50) in data set [2] of 4.1 nM.
In data set [1], `CCS(=O)(=O)c1ccc(-c2cc(Cl)ccc2OCC(=O)O)c(Cl)c1` yielded a hepatocyte CLint of less than 3 µL/min/1e6 cells. The same molecule registered a half-maximal inhibitory concentration (IC50) in data set [2] of 1.5 nM. The molecule further had a microsomal CLint in data set [3] (liver microsomes) of 7 µL/min/mg.
The corresponding values for `Cc1cc(N(C)S(C)(=O)=O)ccc1-c1cc(C(F)(F)F)ccc1OCC(=O)O` are less than 3 µL/min/1e6 cells, 0.4 nM and less than 3 µL/min/mg.
In data set [1], `CCS(=O)(=O)c1cccc(-c2cc(C(F)(F)F)ccc2OCC(=O)O)c1` showed a hepatocyte CLint of less than 3 µL/min/1e6 cells. This molecule also gave an IC50 in data set [2] of 56 nM. The microsomal CLint in data set [3] (liver microsomes) came out at 12 µL/min/mg.
Regarding `N#Cc1ccc(-c2cc(C(F)(F)F)ccc2OCC(=O)O)cc1`, the IC50 in data set [2] is 126 nM.
Take `CS(=O)(=O)c1ccc(-c2cc(Cl)ccc2OCC(=O)O)c(Cl)c1`: in data set [1], the hepatocyte CLint turned out to be 5 µL/min/1e6 cells. Moreover, the IC50 in data set [2] worked out at 0.6 nM. In addition, the microsomal CLint in data set [3] (liver microsomes) worked out at 10 µL/min/mg.
The molecule `CCCCOc1ccccc1-c1cc(C(F)(F)F)ccc1OCC(=O)O` came in with a hepatocyte CLint in data set [1] of 9 µL/min/1e6 cells. This molecule showed an IC50 in data set [2] of 10 nM. The molecule further had a microsomal CLint in data set [3] (liver microsomes) of 6 µL/min/mg.
On to `CCS(=O)(=O)c1ccc(-c2cc(Cl)ccc2OCC(=O)O)c(C(F)(F)F)c1`, for which the IC50 in data set [2] turned out to be 293 nM.
With `CCS(=O)(=O)c1ccc(-c2cc(C(F)(F)F)ccc2O[C@@H](C)C(=O)O)c(C)c1`, the hepatocyte CLint in data set [1] is 10 µL/min/1e6 cells. Moreover, the IC50 in data set [2] was found to be 355 nM.
In the case of `CCc1ccc(OCC(=O)O)c(-c2ccc(S(C)(=O)=O)cc2)c1`, the hepatocyte CLint in data set [1] came to 13 µL/min/1e6 cells. Besides, the microsomal CLint in data set [3] (microsomes) was less than 3 µL/min/mg.
Molecule `CCS(=O)(=O)c1ccc(-c2cc(C(F)(F)F)ccc2O[C@H](C)C(=O)O)c(C)c1` came in with a hepatocyte CLint in data set [1] of 23 µL/min/1e6 cells. In addition, the IC50 in data set [2] worked out at 1.6 nM. In data set [3] (liver microsomes), this molecule came in with a microsomal CLint of less than 3 µL/min/mg.
As to `CCS(=O)(=O)c1ccc(-c2cc(C(F)(F)F)ccc2OCc2nnn[nH]2)c(C)c1`, the IC50 in data set [2] came out at 891 nM. This lies in the sub-micromolar range.
`N#Cc1ccc(F)c(-c2cc(C(F)(F)F)ccc2OCC(=O)O)c1` displayed a hepatocyte CLint in data set [1] of less than 3 µL/min/1e6 cells. For the same molecule, in data set [2], the IC50 worked out at 0.2 nM. Also, the microsomal CLint in data set [3] (microsomes) was less than 4 µL/min/mg.
`CCSc1ccc(-c2cc(C(F)(F)F)ccc2OCC(=O)O)cc1` yielded an IC50 in data set [2] of 8.9 nM. This counts as single-digit nanomolar.
In turn, `CN(c1ccc(-c2cc(F)ccc2OCC(=O)O)c(Cl)c1)S(C)(=O)=O` had a half-inhibitory concentration (IC50) in data set [2] of 2.2 nM.
The molecule `CCS(=O)(=O)c1ccc(-c2cc(C(F)(F)F)ccc2OC(C)(C)C(=O)O)c(C)c1` displayed an IC50 in data set [2] of 3980 nM. This IC50 lies about 1800-fold higher than the previous one.
In data set [1], `C[C@@H](Oc1ccc(C(F)(F)F)cc1-c1cccc(C#N)c1)C(=O)O` displayed a hepatocyte CLint of less than 5 µL/min/1e6 cells. Further, in data set [2], the IC50 turned out to be 0.6 nM. The microsomal CLint in data set [3] (liver microsomes) was less than 3 µL/min/mg.
Consider `CN(c1ccc(-c2cc(C(F)(F)F)ccc2OCC(=O)O)cc1)S(C)(=O)=O`, for which, in data set [1], the hepatocyte CLint was less than 3 µL/min/1e6 cells. Also, the IC50 in data set [2] was 0.8 nM. Moreover, the microsomal CLint in data set [3] (liver microsomes) is 13 µL/min/mg.
In data set [1], `CCS(=O)(=O)c1ccc(-c2cc(C(F)(F)F)ccc2OCC(=O)O)c(Cl)c1` came in with an intrinsic metabolic clearance (hepatocyte CLint) of less than 5 µL/min/1e6 cells. Also, the IC50 in data set [2] stood at 0.3 nM. Moreover, in data set [3] (liver microsomes), the intrinsic metabolic clearance (microsomal CLint) was less than 3 µL/min/mg.
For `CS(=O)(=O)c1ccc(-c2cc(C(F)(F)F)ccc2OCC(=O)O)c(Cl)c1`, in data set [2], the IC50 was determined as 0.2 nM.
